The text below walks through data of patent US7868028B2 (priority 2002, dated 2011).

One test has as its system Male Sprague-Dawley rats. As to conditions: rat, in vivo.
Test [1] concerns voltage-gated sodium channel (site 1, [3H]Saxitoxin binding). Set-up: species or system rat.
Test [2] has as its target voltage-gated sodium channel. As to conditions: cited from earlier work.

“And” between values parts separate entries of the source, which are not always exact repeats. Identical values can stand only once. Like-named read-outs stand apart in the source and are kept apart here.

By % inhibition is commonly meant the change of the read-out against control, counted positive when it falls. The low end stands for little suppression, the high end for strong suppression. In general, IC50 refers to the concentration that inhibits the measured activity by half. Read a low IC50 as higher potency. Turning to `Cl.N=c1n(Cc2ccccc2)c2ccccc2n1CC(O)c1ccc(Cl)c(Cl)c1` (racemic) [Compound 2], in the test with Male Sprague-Dawley rats, the “Average % MPE 5 minutes” value is 100 % MPE and the “Average % MPE Day 4” value is 1 % MPE. Moreover, in test [1], the “% inhibition” value was determined as 46% and the half-inhibitory concentration (IC50) was determined as 21 µM.
Turning to `CCn1c(=N)n(CC(O)c2ccc(Cl)c(Cl)c2)c2ccccc21.Cl` (stereo not drawn) [Compound 9], in the test on Male Sprague-Dawley rats, the “Average % MPE 5 minutes” value is on record as 100 % MPE and the “Average % MPE Day 4” value was determined as 34 % MPE. For the same molecule, in test [1], the “% inhibition” value came out at 46% and the half-inhibitory concentration (IC50) was 89 µM.
Turning to `Cl.N=c1n(Cc2ccccc2)c2ccccc2n1CC(O)c1ccccc1` (racemic) [Compound 5], in the test on Male Sprague-Dawley rats, the “Average % MPE 5 minutes” value is on record as 100 % MPE and the “Average % MPE Day 4” value is 7 % MPE. Further, in test [1], the “% inhibition” value was found to be 38% and the IC50 stood at 41 µM.
Take `Br.N=c1n(Cc2ccccc2)c2ccccc2n1CC(O)COCc1ccccc1` (stereo not drawn) [Compound 71]: in the test on Male Sprague-Dawley rats, the “Average % MPE 5 minutes” value worked out at 100 % MPE and the “Average % MPE Day 4” value was determined as 2 % MPE. Further, in test [1], the “% inhibition” value is recorded as 34% and the IC50 is 30 µM.
Regarding `Cl.N=c1n(Cc2ccccc2)c2ccccc2n1CC(O)c1ccc(Cl)cc1` (stereo not drawn) [Compound 7], in the test on Male Sprague-Dawley rats, the “Average % MPE 5 minutes” value was found to be 100 % MPE and the “Average % MPE Day 4” value is recorded as 32 % MPE. In test [1], the “% inhibition” value was found to be 51% and the IC50 worked out at 60 µM.
For the molecule `Cl.N=c1n(CCN2CCCCC2)c2ccccc2n1CC(O)COc1ccccc1` (racemic) [Compound 22], the “Average % MPE 5 minutes” value with Male Sprague-Dawley rats is on record as 100 % MPE. In test [1], the “% inhibition” value is listed as 14% and the IC50 was determined as 210 µM.
Consider `Cc1ccc(Cn2c(=N)n(CC(O)c3ccc(Cl)c(Cl)c3)c3ccccc32)cc1.Cl` (stereo not drawn) [Compound 11], for which, in the test with Male Sprague-Dawley rats, the “Average % MPE 5 minutes” value was 34 % MPE and the “Average % MPE Day 4” value came out at 18 % MPE. Also, in test [1], the “% inhibition” value worked out at 48% and the IC50 was determined as 155 µM.
The like results for `CCCCn1c(=N)n(CC(O)COc2ccc(Cl)cc2)c2ccccc21.Cl` (racemic) [Compound 10] were, in that order, 26 % MPE, 19 % MPE, 42% and 96 µM.
As to `Br.N=c1n(Cc2ccccc2)c2ccccc2n1CC(O)COc1ccccc1` (stereo not drawn) [Compound 3, 1-benzyl-2-imino-3-(2-hydroxy-3-phenoxypropyl)benzimidazole hydrobromide], the “Average % MPE 5 minutes” value with Male Sprague-Dawley rats (hydrobromide) is 76 % MPE and 100 % MPE. Also, in test [1], the “% inhibition” value turned out to be 52% and the IC50 is 21 µM.
As to `Cl.N=c1n(Cc2ccccc2)c2ccccc2n1CC(O)c1cccs1` (racemic) [Compound 6], the “Average % MPE 5 minutes” value in the test on Male Sprague-Dawley rats was 93 % MPE and 80 % MPE and 100 % MPE. Moreover, in test [1], the “% inhibition” value is 52% and the IC50 was determined as 43 µM.
In general, Kd refers to the free concentration of one partner at which half of the binding sites on the other are occupied at equilibrium, for simple one-to-one binding. Consider `NC1=N[C@H](O)[C@H]2[C@H]3O[C@]4(O)O[C@@H]([C@@H](O)[C@@]2(N1)[C@@H]4O)[C@]3(O)CO` [TTX, tetrodotoxin], for which the dissociation constant (Kd) in test [2] was 0.003 to 0.005 µM.
On to `Cl.N=c1n(Cc2ccccc2)c2ccccc2n1CC(O)COc1ccc(Cl)cc1` (stereo not drawn) [Compound 1], for which, in the test on Male Sprague-Dawley rats, the “Average % MPE 5 minutes” value was 100 % MPE and the “Average % MPE Day 4” value was 3 % MPE. In test [1], the “% inhibition” value is given as 59% and the IC50 was determined as 15 µM.
The like results for `Br.COc1ccc(Cn2c(=N)n(CC(O)COc3ccccc3)c3ccccc32)cc1` (racemic) [Compound 78] were, in that order, 11 % MPE, −4 % MPE, 17% and 67 µM.
Consider `Cc1ccc(Cn2c(=N)n(CC(O)COc3ccccc3)c3ccccc32)cc1.Cl` (racemic) [Compound 4], for which, in the test on Male Sprague-Dawley rats, the “Average % MPE 5 minutes” value stood at 100 % MPE and the “Average % MPE Day 4” value is reported as −2 % MPE. In test [1], the “% inhibition” value is listed as 47% and the IC50 was 21 µM.
As to `Br.N=c1n(Cc2ccc(F)cc2)c2ccccc2n1CC(O)COc1ccccc1` (racemic) [Compound 70], in the test on Male Sprague-Dawley rats, the “Average % MPE 5 minutes” value is reported as 83 % MPE and the “Average % MPE Day 4” value is 4 % MPE. Moreover, in test [1], the “% inhibition” value is reported as 26% and the 50% inhibitory concentration (IC50) is 97 µM.
Turning to `CCCCn1c(=N)n(CC(O)COc2ccccc2)c2ccccc21.Cl` (racemic) [Compound 8], the “Average % MPE 5 minutes” value in the test on Male Sprague-Dawley rats is 100 % MPE. Also, in test [1], the “% inhibition” value is 41% and the IC50 was 87 µM.
